The first assay deals with phosphorylation of Serine 473 in Akt. As to the kind of experiment: In Vitro Phospho-Ser473 Akt Assay in MDA-MB-468 cells. As to conditions: Homo sapiens, MDA-MB-468, read-out: IC50 values against mTOR, phospho-Ser473 Akt assay, MDA-MB-468 cells. It counts as cell-based.
For `COc1ccc(-c2ccc3c(N4CCOC[C@@H]4C)nc(N4CCCC[C@H]4C)nc3n2)cc1CO` [Example 18a], the IC50 is below 100 nM.
For `COc1ccc(-c2ccc3c(N4CCOC[C@@H]4C)nc(N4CC[C@H](O)C4)nc3n2)cc1CO` [Example 18ab], the IC50 was below 300 nM.
On the same count and under the same terms, to `COc1ccc(-c2ccc3c(N4CCOC[C@@H]4C)nc(N4CCC(N5CCOCC5)CC4)nc3n2)cc1CO` [Example 18ac] belongs below 100 nM; to `COc1ccc(-c2ccc3c(N4CCOC[C@@H]4C)nc(N4CCC(N)CC4)nc3n2)cc1CO` [Example 18ad], below 100 nM.
Still for that read-out and setting: to `COc1ccc(-c2ccc3c(N4CCOC[C@@H]4C)nc(N4CC(C)CC(C)C4)nc3n2)cc1CO` (stereo partly shown) [Example 18ae] belongs below 100 nM; to `COc1ccc(-c2ccc3c(N4CCOC[C@@H]4C)nc(N4CCC(C(F)(F)F)CC4)nc3n2)cc1CO` [Example 18af], below 300 nM.
As for `COC(=O)[C@@H]1CCCN1c1nc(N2CCOC[C@@H]2C)c2ccc(-c3ccc(OC)c(CO)c3)nc2n1` [Example 18ah], the IC50 was below 100 nM.
Same read-out and setting: to `COc1ccc(-c2ccc3c(N4CCOC[C@@H]4C)nc(N4CCCC(OC)C4)nc3n2)cc1CO` (stereo partly shown) [Example 18aj] belongs below 300 nM.
As to `COc1ccc(-c2ccc3c(N4CCOC[C@@H]4C)nc(N4CCC(C(=O)c5ccc(Cl)cc5)CC4)nc3n2)cc1CO` [Example 18ak], the IC50 was below 100 nM.
On to `COc1ccc(-c2ccc3c(N4CCOC[C@@H]4C)nc(N4CCC(O)(c5ccccc5)CC4)nc3n2)cc1CO` [Example 18am], for which the IC50 was below 100 nM.
For `COc1ccc(-c2ccc3c(N4CCOC[C@@H]4C)nc(N4CCC(C#N)(c5ccccc5)CC4)nc3n2)cc1CO` [Example 18an], the IC50 was below 100 nM.
On the same count and under the same terms, for `COc1ccc(-c2ccc3c(N4CCOC[C@@H]4C)nc(N4CCCC4C)nc3n2)cc1CO` (stereo partly shown) [Example 18ap] the value was below 100 nM.
Take `COc1ccc(-c2ccc3c(N4CCOC[C@@H]4C)nc(N4CCC(c5ccc(Cl)cc5)CC4)nc3n2)cc1CO` [Example 18aq]: the IC50 was below 300 nM.
On the same count and under the same terms, for `COc1ccc(-c2ccc3c(N4CCOC[C@@H]4C)nc(N4CCCC(c5nc(C)no5)C4)nc3n2)cc1CO` (stereo partly shown) [Example 18ar] the value was below 100 nM; for `COc1ccc(-c2ccc3c(N4CCOC[C@@H]4C)nc(N4CCCC(CN(C)C)C4)nc3n2)cc1CO` (stereo partly shown) [Example 18as], below 300 nM; for `COc1ccc(-c2ccc3c(N4CCOC[C@@H]4C)nc(N4CCCC(N)C4)nc3n2)cc1CO` (stereo partly shown) [Example 18au], below 100 nM.
In the case of `COc1ccc(-c2ccc3c(N4CCOC[C@@H]4C)nc(NC(C)CC(C)C)nc3n2)cc1CO` (stereo partly shown) [Example 18av], the IC50 is below 300 nM.
Same read-out and setting: to `COc1ccc(-c2ccc3c(N4CCOC[C@@H]4C)nc(NC4CCCC4)nc3n2)cc1CO` [Example 18aw] belongs below 100 nM; to `COCC(C)Nc1nc(N2CCOC[C@@H]2C)c2ccc(-c3ccc(OC)c(CO)c3)nc2n1` (stereo partly shown) [Example 18ax], below 100 nM; to `COc1ccc(-c2ccc3c(N4CCOC[C@@H]4C)nc(-n4ccnc4)nc3n2)cc1CO` [Example 18ay], below 300 nM.
On the same count and under the same terms, to `COc1ccc(-c2ccc3c(N4CCOC[C@@H]4C)nc(-n4cnc(C)c4C=O)nc3n2)cc1CO` [Example 18ba] belongs below 100 nM; to `COc1ccc(-c2ccc3c(N4CCOC[C@@H]4C)nc(-n4cnc(Br)c4)nc3n2)cc1CO` [Example 18bb], below 300 nM.
Same read-out and setting: for `COc1ccc(-c2ccc3c(N4CCOC[C@@H]4C)nc(-n4cc(Br)nc4C)nc3n2)cc1CO` [Example 18bc] the value was below 300 nM; for `CCC1CCC(C)N(c2nc(N3CCOC[C@@H]3C)c3ccc(-c4ccc(OC)c(CO)c4)nc3n2)C1` (stereo partly shown) [Example 18bd], below 100 nM.
For the molecule `COc1ccc(-c2ccc3c(N4CCOC[C@@H]4C)nc(N4CCC(c5ccccc5)CC4)nc3n2)cc1CO` [Example 18be], the IC50 was below 100 nM.
The same measure, in the same setting: to `COc1ccc(-c2ccc3c(N4CCOC[C@@H]4C)nc(N4CCOC(c5ccccc5)C4)nc3n2)cc1CO` (stereo partly shown) [Example 18bf] belongs below 300 nM; to `COc1ccc(-c2ccc3c(N4CCOC[C@@H]4C)nc(N4C(C)CCC4C)nc3n2)cc1CO` (stereo partly shown) [Example 18bg], below 100 nM.
`COc1ccc(-c2ccc3c(N4CCOC[C@@H]4C)nc(N4CCC(c5ccncc5)CC4)nc3n2)cc1CO` [Example 18bi]: the IC50 is below 100 nM.
For the molecule `COc1ccc(-c2ccc3c(N4CCOC[C@@H]4C)nc(N4CCC[C@H](O)C4)nc3n2)cc1CO` [Example 18bj], the IC50 is below 100 nM.
With `COc1ccc(-c2ccc3c(N4CCOC[C@@H]4C)nc(N4CCC[C@@H](O)C4)nc3n2)cc1CO` [Example 18bk], the IC50 is below 100 nM.
Still for that read-out and setting: to `COc1ccc(-c2ccc3c(N4CCOC[C@@H]4C)nc(N4CCOc5ccccc54)nc3n2)cc1CO` [Example 18bl] belongs below 300 nM; to `COc1ccc(-c2ccc3c(N4CCOC[C@@H]4C)nc(N4CCCCC4CO)nc3n2)cc1CO` (stereo partly shown) [Example 18bm], below 100 nM.
Still for that read-out and setting: to `COc1ccc(-c2ccc3c(N4CCOC[C@@H]4C)nc(N4CC[C@@H](O)C4)nc3n2)cc1CO` [Example 18bn] belongs below 100 nM; to `COC[C@@H](C)Nc1nc(N2CCOC[C@@H]2C)c2ccc(-c3ccc(OC)c(CO)c3)nc2n1` [Example 18bo], below 100 nM; to `CCNc1nc(N2CCOC[C@@H]2C)c2ccc(-c3ccc(OC)c(CO)c3)nc2n1` [Example 18bq], below 300 nM.
Still for that read-out and setting: for `COc1ccc(-c2ccc3c(N4CCOC[C@@H]4C)nc(NC(C)C)nc3n2)cc1CO` [Example 18br] the value was below 100 nM; for `COc1ccc(-c2ccc3c(N4CCOC[C@@H]4C)nc(NCCF)nc3n2)cc1CO` [Example 18bt], below 300 nM.
With `COc1ccc(-c2ccc3c(N4CCOC[C@@H]4C)nc(N[C@H](C)CO)nc3n2)cc1CO` [Example 18bw], the IC50 is below 100 nM.
As for `COc1ccc(-c2ccc3c(N4CCOC[C@@H]4C)nc(N[C@@H](C)CO)nc3n2)cc1CO` [Example 18bx], the IC50 was below 300 nM.
On the same count and under the same terms, to `COc1ccc(-c2ccc3c(N4CCOC[C@@H]4C)nc(NCC(F)F)nc3n2)cc1CO` [Example 18bz] belongs below 300 nM; to `COc1ccc(-c2ccc3c(N4CCOC[C@@H]4C)nc(N4CCCCC4)nc3n2)cc1CO` [Example 18c], below 100 nM; to `COc1ccc(-c2ccc3c(N4CCOC[C@@H]4C)nc(N4CCNCC4)nc3n2)cc1CO` [Example 18ca], below 300 nM.
For `COc1ccc(-c2ccc3c(N4CCOC[C@@H]4C)nc(NC(C)(C)CO)nc3n2)cc1CO` [Example 18cc], the IC50 is below 100 nM.
For `COc1ccc(-c2ccc3c(N4CCOC[C@@H]4C)nc(NC(CO)CO)nc3n2)cc1CO` [Example 18cd], the half-inhibitory concentration (IC50) is below 300 nM.
Take `COc1ccc(-c2ccc3c(N4CCOC[C@@H]4C)nc(N4CCNC(=O)C4)nc3n2)cc1CO` [Example 18cf]: the IC50 was below 100 nM.
Still for that read-out and setting: to `COc1ccc(-c2ccc3c(N4CCOC[C@@H]4C)nc(N4CCN(C)CC4)nc3n2)cc1CO` [Example 18cg] belongs below 300 nM; to `COc1ccc(-c2ccc3c(N4CCOC[C@@H]4C)nc(N4CCSCC4)nc3n2)cc1CO` [Example 18ch], below 100 nM.
The same measure, in the same setting: to `COCCN(CCOC)c1nc(N2CCOC[C@@H]2C)c2ccc(-c3ccc(OC)c(CO)c3)nc2n1` [Example 18cj] belongs below 100 nM.
The same measure, in the same setting: to `COc1ccc(-c2ccc3c(N4CCOC[C@@H]4C)nc(N(CCO)CCO)nc3n2)cc1CO` [Example 18ck] belongs below 100 nM; to `COc1ccc(-c2ccc3c(N4CCOC[C@@H]4C)nc(N4CCC[C@@H]4CO)nc3n2)cc1CO` [Example 18cm], below 100 nM; to `COc1ccc(-c2ccc3c(N4CCOC[C@@H]4C)nc(-n4ccnc4C)nc3n2)cc1CO` [Example 18cn], below 300 nM.
Consider `COc1ccc(-c2ccc3c(N4CCOC[C@@H]4C)nc(N4CCNC(=O)C4C)nc3n2)cc1CO` (stereo partly shown) [Example 18co], for which the IC50 is below 100 nM.
On the same count and under the same terms, for `COc1ccc(-c2ccc3c(N4CCOC[C@@H]4C)nc(N(C)CCO)nc3n2)cc1CO` [Example 18cr] the value was below 100 nM.
Same read-out and setting: for `COc1ccc(-c2ccc3c(N4CCOC[C@@H]4C)nc(N(CCO)C(C)C)nc3n2)cc1CO` [Example 18cs] the value was below 100 nM; for `COCCOc1nc(N2CCOC[C@@H]2C)c2ccc(-c3ccc(OC)c(CO)c3)nc2n1` [Example 18cx], below 300 nM.

The assay is the same for the next values; noted with them: Homo sapiens, MDA-MB-468, read-out: IC50 values against mTOR, phospho-Ser473 Akt assay, MDA-MB-468 cells, upper bound.
With `COC(=O)[C@@H]1C[C@@H](O)CN1c1nc(N2CCOC[C@@H]2C)c2ccc(-c3ccc(OC)c(CO)c3)nc2n1` [Example 18aa], the IC50 is below 1000 nM.
Same read-out and setting: to `COc1ccc(-c2ccc3c(N4CCOC[C@@H]4C)nc(N4CCC5CCCCC5C4)nc3n2)cc1CO` (stereo partly shown) [Example 18ag] belongs below 1000 nM; to `COc1ccc(-c2ccc3c(N4CCOC[C@@H]4C)nc(N4CCC(N5CCCC5)CC4)nc3n2)cc1CO` [Example 18ai], below 1000 nM.
Take `COc1ccc(-c2ccc3c(N4CCOC[C@@H]4C)nc(N4CCC(Cc5ccccc5)CC4)nc3n2)cc1CO` [Example 18al]: the IC50 was below 1000 nM.
As for `COC(=O)c1cncn1-c1nc(N2CCOC[C@@H]2C)c2ccc(-c3ccc(OC)c(CO)c3)nc2n1` [Example 18az], the IC50 is below 1000 nM.
Still for that read-out and setting: to `CNc1nc(N2CCOC[C@@H]2C)c2ccc(-c3ccc(OC)c(CO)c3)nc2n1` [Example 18bp] belongs below 1000 nM; to `COc1ccc(-c2ccc3c(N4CCOC[C@@H]4C)nc(NCCO)nc3n2)cc1CO` [Example 18bs], below 1000 nM.
Take `CNCCNc1nc(N2CCOC[C@@H]2C)c2ccc(-c3ccc(OC)c(CO)c3)nc2n1` [Example 18bv]: the IC50 is below 1000 nM.
On the same count and under the same terms, to `COCCNc1nc(N2CCOC[C@@H]2C)c2ccc(-c3ccc(OC)c(CO)c3)nc2n1` [Example 18by] belongs below 1000 nM; to `COc1ccc(-c2ccc3c(N4CCOC[C@@H]4C)nc(NCCN(C)C)nc3n2)cc1CO` [Example 18cb], below 1000 nM; to `COc1ccc(-c2ccc3c(N4CCOC[C@@H]4C)nc(NC(C)CN(C)C)nc3n2)cc1CO` (stereo partly shown) [Example 18ct], below 1000 nM.
Still for that read-out and setting: to `CCOc1nc(N2CCOC[C@@H]2C)c2ccc(-c3ccc(OC)c(CO)c3)nc2n1` [Example 18cv] belongs below 1000 nM.

The values above are taken from patent publication US9102670B2, “Pyrido-, pyrazo- and pyrimido-pyrimidine derivatives as mTOR inhibitors” (KuDOS Pharmaceuticals Limited, priority 2006, dated 2015).
